Measured values published in PMC11505200, “Exploring the 3,5-Dibromo-4,6-dimethoxychalcones and Their Flavone Derivatives as Dual α-Glucosidase and α-Amylase Inhibitors with Antioxidant and Anticancer Potential” (Antioxidants, 2024).
Where two headings read alike, the source gives them in different places.

Assays:
A549 cells = assay: Cytotoxicity, CellTiter-Blue cell viability assay; type: cell-based, human; settings: 24 h treatment, 1-100 μM
Experimental: (§1) The cells were maintained in Dulbecco’s Modified Eagle’s Medium (DMEM, Gibco, Carlsbad, CA, USA) supplemented with 10% fetal bovine serum (FBS) and 1% penicillin/streptomycin in culture flasks and incubated at 37 °C in 5% CO2. When the cells reached 85% confluency, they were detached using 2% trypsin. The cell count was performed using a hand-held automated cell counter (Scapter 3.0™, Merck, Burlington, MA, USA) and then seeded at 1 × 10^5 cells/well. The well-plates were incubated overnight to allow cell attachment. After 24 h, treatments were administered with different concentrations (1, 5, 10, 25, 50 and 100 μM) of the test compounds and the positive controls (quercetin and nintedanib). The mixtures were incubated for another 24 h and then 20 μL of the CellTiter-Blue (Cytek Biosciences, San Diago, CA, USA) solution (5 mg/mL) was added to all the wells. Fluorescence was measured at 560 nm excitation/590 nm emission using an Elisa microplate reader (ThermoFisher Scientific, Vario SkanFlash, Vantaa, Finland). The cell viability of the triplicate results was calculated using the GraphPad Prism software (Version 8, GraphPad Software Inc., San Diego, CA, USA) to fit the nonlinear regression dose–response curves to obtain the IC50 and standard deviation values.

MCF-7 cells = assay: Cytotoxicity, CellTiter-Blue cell viability assay; type: cell-based, human; settings: 24 h treatment, 1-100 μM
Experimental: as §1

[1] = biological target: T1, α-glucosidase type 1 from Saccharomyces cerevisiae (Saccharomyces cerevisiae, UniProt P53341); assay: biochemical; type: biochemical; settings: for selectivity index (SI = IC50(α-glucosidase)/IC50(α-amylase)): ratio of α-glucosidase to α-amylase IC50
T1 construct: purchased Merck Life Science (Pty) Ltd. (Sigma-Aldrich) G5003
Experimental: The assays and analyses were performed in triplicates following a method described in a previous study. […] A solution of α-glucosidase type 1 from Saccharomyces cerevisiae (0.48 u/mL, 17 μL), 100 mM phosphate buffer (pH 6.8; 50 μL) and the test sample in DMSO (17 μL) were incubated at 37 °C for 10 min. This pre-incubation was followed by addition of 2 mM p-nitrophenyl-α-D-glucopyranoside (PNP-G, 17 μL) to each of the wells containing reaction mixtures to initiate the reaction. The plate was then incubated for 30 min. at 37 °C. The five absorbance readings were recorded at a wavelength of 405 nm for each triplicate run using a Varioskan flash microplate spectrophotometer (Thermo Scientific, Waltham, MA, USA). The average values obtained from the readings were used to determine the IC50 and standard deviation values. The values were calculated by the nonlinear regression analysis using the Graph Pad Prism version 8.0.1 software (San Diego, CA, USA) and expressed as the mean SD of three distinct experiments.

Vero cells = assay: Cytotoxicity, CellTiter-Blue cell viability assay; type: cell-based, African green monkey (Cercopithecus aethiops); settings: 24 h treatment, 1-100 μM
Experimental: as §1

α-amylase = biological target: T2, α-amylase (Homo sapiens, UniProt P04746); assay: In vitro α-amylase inhibitory assay (α-Amylase Inhibitor Screening Kit); type: biochemical; settings: mean ± SD, triplicate; 1-50 μM
T2 construct: purchased Abcam ab283391
T2 sequence (P04746 16-511): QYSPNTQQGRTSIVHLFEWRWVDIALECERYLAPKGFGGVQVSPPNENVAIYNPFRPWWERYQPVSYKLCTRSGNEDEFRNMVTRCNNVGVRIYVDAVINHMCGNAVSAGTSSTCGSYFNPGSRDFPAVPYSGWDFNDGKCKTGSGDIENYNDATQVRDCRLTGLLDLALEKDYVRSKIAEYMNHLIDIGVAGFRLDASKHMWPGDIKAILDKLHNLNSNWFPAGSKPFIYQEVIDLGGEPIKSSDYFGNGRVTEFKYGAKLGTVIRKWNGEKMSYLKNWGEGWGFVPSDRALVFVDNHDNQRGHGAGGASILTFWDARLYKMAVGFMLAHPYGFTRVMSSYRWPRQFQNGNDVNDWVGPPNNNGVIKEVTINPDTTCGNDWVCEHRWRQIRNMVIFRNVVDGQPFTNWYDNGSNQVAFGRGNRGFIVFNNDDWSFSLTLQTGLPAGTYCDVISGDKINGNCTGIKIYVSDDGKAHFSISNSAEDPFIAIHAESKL
Experimental: The mixtures were incubated at 37 °C for 10 min. and the substrate prepared in the same fashion as the enzyme was added to the mixtures to initiate the reaction. The plate was then incubated at RT for 25 min. in the dark. Five different absorbance readings were recorded for each triplicate run at a wavelength of 405 nm using a Varioskan flash microplate spectrophotometer (Thermo Scientific, Waltham, MA, USA). The IC50 and SD values were calculated using the Graph Pad Prism software.

[2] = Nitric oxide (NO) free radical scavenging assay (Griess reagent); settings: mean ± SD; 1-50 μM
Experimental: Different concentrations (1, 5, 10, 25 and 50 μM) of the test compounds and quercetin (reference standard) were prepared in DMSO. A mixture of the compound (5 μL), 10 mM sodium nitroprusside (20 μL) and the phosphate buffer (5 μL) were incubated at 25 °C in a 96-well plate. The plate was incubated for 2.5 h at 25 °C followed by the addition of the Griess reagent (1.00 g of sulphanilic acid + 0.10 g naphthylethylene diamine dihydrochloride, 20 μL). The mixtures were allowed to stand for 30 min. […] The IC50 and SD values were calculated using the Graph Pad Prism software.

[3] = Metal ion chelation assay (UV-Vis spectrophotometry); type: physicochemical; settings: 60 μM in methanol with CuCl2, RT
Experimental: A solution of the test compound in methanol alone (60 μM, final concentration) or in the presence of CuCl2 or ZnCl2 was stirred at RT for 30 min. The absorption spectra were recorded at RT at wavelengths ranging from 200 to 600 nm using a Shimadzu UV/Vis spectrometer, model: UV-1800 240V (Shimadzu Europa GmbH, Albert-Han Strasse 6-10, 47269 Duisburg, Germany).

[4] = Chlorocebus sabaeus, Vero, 24 h
[5] = mean ± SD, triplicate, 1-50 μM, read-out: IC50 α-Glucosidase

T1 sequence (P53341 whole entry): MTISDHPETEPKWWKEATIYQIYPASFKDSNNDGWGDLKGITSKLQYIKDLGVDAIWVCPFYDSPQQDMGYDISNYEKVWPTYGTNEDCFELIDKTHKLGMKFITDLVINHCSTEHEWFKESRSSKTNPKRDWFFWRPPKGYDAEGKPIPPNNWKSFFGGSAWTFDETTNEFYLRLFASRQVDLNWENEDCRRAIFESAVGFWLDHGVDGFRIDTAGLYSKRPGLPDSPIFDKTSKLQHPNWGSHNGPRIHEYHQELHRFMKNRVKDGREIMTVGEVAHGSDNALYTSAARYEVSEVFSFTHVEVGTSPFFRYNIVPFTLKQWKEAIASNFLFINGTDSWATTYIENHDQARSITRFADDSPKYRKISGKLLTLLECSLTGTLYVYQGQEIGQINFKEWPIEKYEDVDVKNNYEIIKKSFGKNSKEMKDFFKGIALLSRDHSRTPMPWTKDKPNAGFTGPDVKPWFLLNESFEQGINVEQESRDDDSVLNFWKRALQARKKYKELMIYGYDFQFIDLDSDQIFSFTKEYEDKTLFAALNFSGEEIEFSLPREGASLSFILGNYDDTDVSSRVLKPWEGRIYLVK

COc1c(Br)c(O)c(C(=O)/C=C/c2ccccc2)c(OC)c1Br [2a, (E)-1-(3,5-Dibromo-2-hydroxy-4,6-dimethoxyphenyl)-3-phenylprop-2-en-1-one]
IC50 (A549 cells; Homo sapiens, A549, 24 h): 7.4 ± 0.67 µM
IC50 (MCF-7 cells; Homo sapiens, MCF7, 24 h): 4.12 ± 0.55 µM
IC50 [1]: 14.5 ± 0.01 µM
selectivity index (SI = IC50(α-glucosidase)/IC50(α-amylase)) [1]: 1.99
IC50 (Vero cells; [4]): 6.04 ± 0.54 µM
IC50 (α-amylase): 7.3 ± 0.11 µM
IC50 [2]: 11 ± 0.01 µM
melting point: 106 to 108 °C

COc1c(Br)c(O)c(C(=O)/C=C/c2ccc(F)cc2)c(OC)c1Br [2b, (E)-1-(3,5-Dibromo-2-hydroxy-4,6-dimethoxyphenyl)-3-(4-fluorophenyl)prop-2-en-1-one]
IC50 (A549 cells; Homo sapiens, A549, 24 h): 18.7 ± 0.89 µM
IC50 (MCF-7 cells; Homo sapiens, MCF7, 24 h): 12.1 ± 0.72 µM
IC50 [1, 5]: 7.3 ± 0.004 µM
selectivity index (SI = IC50(α-glucosidase)/IC50(α-amylase)) [1]: 1.12
IC50 (Vero cells; [4]): 25 ± 1.09 µM
IC50 (α-amylase): 6.5 ± 0.07 µM
IC50 [2]: 6.5 ± 0.005 µM
melting point: 132 to 134 °C

COc1c(Br)c(O)c(C(=O)/C=C/c2ccc(Cl)cc2)c(OC)c1Br [2c, (E)-1-(3,5-Dibromo-2-hydroxy-4,6-dimethoxyphenyl)-3-(4-chlorophenyl)prop-2-en-1-one]
IC50 (A549 cells; Homo sapiens, A549, 24 h): 9.68 ± 0.8 µM
IC50 (MCF-7 cells; Homo sapiens, MCF7, 24 h): 15.1 ± 0.91 µM
IC50 [1]: 12.3 ± 0.003 µM
selectivity index (SI = IC50(α-glucosidase)/IC50(α-amylase)) [1]: 0.68
IC50 (Vero cells; [4]): 20.3 ± 1.01 µM
IC50 (α-amylase): 18 ± 0.06 µM
IC50 [2]: 28 ± 0.003 µM
melting point: 150 to 152 °C

COc1ccc(/C=C/C(=O)c2c(O)c(Br)c(OC)c(Br)c2OC)cc1 [2d, (E)-1-(3,5-Dibromo-2-hydroxy-4,6-dimethoxyphenyl)-3-(4-methoxyphenyl)prop-2-en-1-one]
IC50 [1]: 16.3 ± 0.02 µM
IC50 [2]: 9.5 ± 0.004 µM
melting point: 155 to 158 °C

COc1c(Br)c(O)c(C(=O)/C=C/c2ccc(C)cc2)c(OC)c1Br [2e, (E)-1-(3,5-Dibromo-2-hydroxy-4,6-dimethoxyphenyl)-3-(p-tolyl)prop-2-en-1-one]
IC50 [1]: 27.4 ± 0.02 µM
melting point: 151 to 152 °C

COc1c(Br)c(O)c(C(=O)/C=C/c2ccc(C(C)C)cc2)c(OC)c1Br [2f, (E)-1-(3,5-Dibromo-2-hydroxy-4,6-dimethoxyphenyl)-3-(4-isopropylphenyl)prop-2-en-1-one]
IC50 [1]: 23.6 ± 0.1 µM
IC50 [2]: 17.4 ± 0.015 µM
melting point: 128 to 130 °C

COc1c(Br)c(OC)c2c(=O)cc(-c3ccccc3)oc2c1Br [3a, 6,8-Dibromo-5,7-dimethoxy-2-phenyl-4H-chromen-4-one]
IC50 (A549 cells): 12.4 ± 0.97 µM
IC50 (A549 cells; Homo sapiens, A549, 24 h): 16.2 ± 0.91 µM
IC50 (MCF-7 cells; Homo sapiens, MCF7, 24 h): 8.5 ± 0.82 µM
IC50 [1]: 14.2 ± 0.005 µM
IC50 (Vero cells): 16.2 ± 0.91 µM
IC50 (Vero cells; [4]): 12.4 ± 0.97 µM
melting point: 216 to 218 °C

COc1c(Br)c(OC)c2c(=O)cc(-c3ccc(F)cc3)oc2c1Br [3b, 6,8-Dibromo-2-(4-fluorophenyl)-5,7-dimethoxy-4H-chromen-4-one]
IC50 [1, 5]: 19.5 ± 0.005 µM
IC50 [2]: 5.4 ± 0.002 µM
melting point: 288 to 289 °C

COc1c(Br)c(OC)c2c(=O)cc(-c3ccc(Cl)cc3)oc2c1Br [3c, 6,8-Dibromo-2-(4-chlorophenyl)-5,7-dimethoxy-4H-chromen-4-ONE]
IC50 (MCF-7 cells): 5.1 ± 0.61 µM
IC50 (MCF-7 cells; Homo sapiens, MCF7, 24 h): 6.96 ± 0.66 µM
IC50 [1, 5]: 0.8 ± 0.002 µM
coordination of Cu^2+ (change of UV-Vis maxima) [3]: some coordination of 3c to the copper ion
IC50 [2]: 4.7 ± 0.02 µM
melting point: 280 to 283 °C

COc1ccc(-c2cc(=O)c3c(OC)c(Br)c(OC)c(Br)c3o2)cc1 [3d, 6,8-Dibromo-5,7-dimethoxy-2-(4-methoxyphenyl)-4H-chromen-4-one]
IC50 [1, 5]: 15.2 ± 0.002 µM
IC50 [2]: 5.3 ± 0.005 µM
melting point: 233 to 236 °C

COc1c(Br)c(OC)c2c(=O)cc(-c3ccc(C)cc3)oc2c1Br [3e, 6,8-Dibromo-5,7-dimethoxy-2-(p-tolyl)-4H-chromen-4-one]
IC50 (A549 cells; Homo sapiens, A549, 24 h): 6.42 ± 0.79 µM
IC50 (MCF-7 cells; Homo sapiens, MCF7, 24 h): 6.96 ± 0.66 µM
IC50 [1, 5]: 10.9 ± 0.007 µM
IC50 (Vero cells; [4]): 9.45 ± 0.79 µM
IC50 (α-amylase): 25.4 ± 0.04 µM
IC50 [2]: 13.3 ± 0.08 µM
melting point: 205 to 206 °C

COc1c(Br)c(OC)c2c(=O)cc(-c3ccc(C(C)C)cc3)oc2c1Br [3f, 6,8-Dibromo-5,7-dimethoxy-2-(4-isopropylphenyl)-4H-chromen-4-one]
IC50 (A549 cells; Homo sapiens, A549, 24 h): 16.1 ± 1.15 µM
IC50 (MCF-7 cells; Homo sapiens, MCF7, 24 h): 10.7 ± 1.02 µM
IC50 [1, 5]: 5.6 ± 0.006 µM
selectivity index (SI = IC50(α-glucosidase)/IC50(α-amylase)) [1]: 0.2
IC50 (Vero cells; [4]): 11.7 ± 1.02 µM
IC50 (α-amylase): 28 ± 0.06 µM
IC50 [2]: 12.1 ± 0.07 µM
melting point: 165 to 167 °C

COC(=O)c1ccc2c(c1)NC(=O)/C2=C(\Nc1ccc(N(C)C(=O)CN2CCN(C)CC2)cc1)c1ccccc1 [Nintedanib, reference compound]
IC50 (A549 cells; Homo sapiens, A549, 24 h): 0.74 ± 0.15 µM
IC50 (MCF-7 cells; Homo sapiens, MCF7, 24 h): 0.53 ± 0.11 µM
IC50 (Vero cells; [4]): 0.89 ± 0.18 µM

O=c1c(O)c(-c2ccc(O)c(O)c2)oc2cc(O)cc(O)c12 [Quercetin, reference compound]
IC50 (A549 cells; Homo sapiens, A549): 35.4 ± 1.78 µM
IC50 (MCF-7 cells; Homo sapiens, MCF7): 35.4 ± 1.78 µM
IC50 (Vero cells; Chlorocebus sabaeus, Vero): 45.6 ± 1.8 µM
IC50 [2]: 4.8 ± 0.01 µM
